In US12168673B2 (Mitopower, Inc., priority 2022, dated 2024):
Read-outs that look alike come from different tables or passages of the source.

How the values were obtained:
[1] = system: cisplatin induced acute kidney injury (AKI) mouse model; assay: Cisplatin induced kidney injury model in mice; format: in vivo, BALB/c female mice
Protocol: The study was performed using protocols approved by the Institutional Animal Ethics Committee (IAEC) based on CPCSEA guidelines for animal care and use. BALB/c female mice of 6-8 weeks age were divided into 5 groups with each group containing 6 members. Animal room environment were monitored for temperature and relative humidity twice a day. The temperature range was 22° C.±3° C. and the humidity range was 30-70%, although the upper range for humidity may be exceeded during room cleaning. Animals were housed in IVC systems and provided with cycles of 12 hours of light and 12 hours of darkness through the study. SDS Feed (M/s. SDS diets services) and autoclaved drinking water was provided ad libitum.
The vehicle for cisplatin was 0.9% saline while the vehicle for compound 100 was PBS at pH 6. The compound 100 formulations were prepared just prior to doing each time. The study was performed in 5 groups.
Animals were acclimatized prior to the study. Pretreatment with compound 100 was administered for 3 days before cisplatin dosing. Animals were weighed and administered vehicle in group 1 and cisplatin was administered at a single dose of 25 mg/kg to groups 2, 3, 4 and 5 intraperitonially on day-3 of the study. The oral dose groups (groups 3-5) were dosed with compound 100 twice daily for 6 days (3 days pre-dose and 3 days post-dose cisplatin).
Blood samples were collected at end of the study (12 h, post last dose terminal sampling, cardiac puncture) in 2 ml Eppendorf tubes, and serum was separated and stored at −20° C. for clinical chemistry analysis.
All animals survived and were sacrificed at end of the study (12 hours post last test compound dose) with an overdose of CO2. […] Serum creatinine and blood urea nitrogen (BUN) was determined using a clinical chemistry analyzer on the final day of blood collection and the results are graphically illustrated for groups 1-5 in FIG. 13 and FIG. 14, respectively.

[2] = PK study in rats (plasma); format: in vivo; conditions: rats; for half-life: plasma
[3] = Distribution in kidney and liver tissue after 24 hrs in rats; conditions: compared with nicotinic acid
[4] = Long term solid stability at −15° C. (purity by UPLC); format: physicochemical; conditions: for Purity % by UP LC: solid state, −15° C. (freezer)
Protocol: The compound from this vial was assessed for purity by UPLC at two different timepoints: Day 0 and Day 93 (3 months).

[5] = Human plasma protein binding (RED dialysis); conditions: human, plasma, human plasma, 10 μM, 5 hours dialysis
Protocol: The test compounds were weighed and prepared as 10 mM stocks in 100% DMSO. 10 μM is the final test concentration for all compounds.
The samples were prepared by spiking test compound(s) in plasma at 10 μM final concentration. 200 μL of plasma containing the test compound was added into the donor well (RED Chamber) of the insert. Simultaneously 350 μL of dialysis buffer (1×PBS) was added into the receiver well (white chamber). Two measurements were made for each test compound. The plate was covered with a sealer and incubated at 37° C. degrees on an orbital shaker at 500 rpm for 5 hours.
After incubation, 25 μl of plasma (RED chamber) and 25 μl of buffer (white chamber) samples were separately collected into separate centrifugation tubes. Plasma and buffer samples were precipitated with 200 μL of 100% acetonitrile containing internal standards. 25 μl of T0 (T Zero) plasma samples (samples before 5 hours incubation) were collected (To samples were processed immediately after the preparation of plasma working stock solution. These samples serve as a measure for calculating the percentage recovery of the test compound and precipitated using 100% acetonitrile containing internal standards). The samples were vortexed at 1000 rpm for 5 min and centrifuged at 4000 rpm for 10 min. The supernatant was diluted 2-fold with water and injected into LC-MS/MS.
The % of Plasma bound/unbound fraction was calculated by the following equation: % Unbound or % free=100*(Fc/Tc); % Recovery=100 (Fc+Tc)/[…] where Tc=Total compound concentration as determined by the calculated concentration on the plasma side of the membrane (concentration in plasma chamber), Fc=Free compound concentration as determined by the calculated concentration on the buffer side of the membrane (concentration in buffer chamber) and T0=Total compound concentration as determined before dialysis.

[6] = system: human hepatocytes; assay: Human hepatocyte clearance; format: in vitro ADME
In short: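 Cryopreserved human hepatocytes at a 2 million cell working stock mixed 1:1 with 2 μM compound working stock at 37 °C, in duplicate. Samples quenched in acetonitrile with internal standard at 0, 15, 30, 60 and 90 min, then analysed by LC-MS/MS.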

[7] = mice, 50, 250 and 500 mg/kg PO twice daily for 6 days, cisplatin 25 mg/kg IP, p<0.05
[8] = rat, Group 2: compound 100 83 mg/kg IV, analyte compound 100 in plasma

For `O=C(OC1O[C@H](CO)[C@@H](O)[C@H]1O)c1cccnc1` (stereo partly drawn) [Compound 100, (3R, 4S, 5R)-3,4-dihydroxy-5-(hydroxymethyl) tetrahydrofuran-2-yl nicotinate], the “BUN compared to group 2 (cisplatin only)” value [1, 7] was “significant reduction”, the “serum creatinine compared to group 2 (cisplatin only)” value [1, 7] was “significant reduction” and the “nephroprotection (conclusion)” value ([1]; mice, all three oral doses) was “nephroprotection”. The half-life ([2]; rat, iv, 83 mg/kg, Group 2: compound 100 83 mg/kg IV, analyte compound 100 in plasma, read-out: T1/2 (converted)) was 1.01 ± 0.22 h, the half-life ([2]; rat, iv, 83 mg/kg, delivered by IV, read-out: T1/2 of degradation in rat plasma (converted)) was 1 h and the half-life ([2]; rat, po, 415 mg/kg, oral, said to be consistent with hepatocyte stability in vitro, read-out: T1/2 following oral administration) was 5 to 6 h. It also gave a Cmax [2, 8] of 188 ± 97.2 µM, a Tmax [2, 8] of 8.34 ± 5.76 min and a clearance [2, 8] of 37.7 mL/min/kg. The AUC(0-t) ([2]; rat, Group 2: compound 100 83 mg/kg IV, analyte compound 100 in plasma, read-out: AUC0-1) was 148 ± 34 µM·h, the Vd ([2]; rat, Group 2: compound 100 83 mg/kg IV, analyte compound 100 in plasma, read-out: Vss) was 3.4 ± 1.62 L/kg and the “in vivo pharmacology compared with nicotinic acid (conclusion)” value [2] was “superior in vivo pharmacology than nicotinic acid with a longer half-life, lower maximal concentration (C), better bioavailability and has a depot effect in the kidney and liver”. The “IV pharmacokinetics profile (in words)” value ([2]; IV) was “biphasic rapid distribution followed by elimination”, the “delivery of nicotinic acid into the tissues” value [3] was “more efficiently than nicotinic acid” and the “Purity % by UP LC” value ([4]; Day 0) was 98.92%. The “Purity % by UP LC” value ([4]; Day 93) was 99.62% and the “solid state stability (in words)” value ([4]; stored at −15° C. for up to three months) was “stable”.
Work on `COC(=O)[C@@H](C)NP(=O)(OC[C@H]1OC(OC(=O)c2cccnc2)[C@H](O)[C@@H]1O)Oc1ccccc1` (stereo partly drawn) [Compound 101, (3R, 4S, 5R)-3,4-dihydroxy-5-(((((1-methoxy-1-oxopropan-2-yl)amino)(phenoxy)phosphoryl)oxy)methyl)tetrahydrofuran-2-yl nicotinate] yielded a fraction unbound at 5 h, 10 μM ([5]; % Bound in plasma) of 0.306, a fraction unbound at 5 h, 10 μM ([5]; % Unbound in plasma) of 0.306 and a fraction unbound at 5 h, 10 μM ([5]; Fraction unbound) of 0.31. For the same compound, the “Remarks (clearance class)” value [6] was “high clearance and High”.
